What was measured:
Format in all cases: cell-based, human
[1] = test system: OA synovial fibroblast cells; assay: Intracellular H2O2 production in OA synovial fibroblast cells
Procedure: (§1) 1.1 Patients. Synovial tissue samples were obtained from 10 patients (8 women, 2 man; mean age 70 +/−6 years) with osteoarthritis (OA) of the knee at the time of total knee joint replacement surgery. All the subjects provided their informed consent.
(§2) 1.2 Isolation and culture of synovial cells. Synovium biopsies were digested is with collagenase from Clostridium histolyticum, Type IA (1 mg/ml) (Sigma-Aldrich, Saint-Louis, USA) and 0.25% trypsin (Sigma Aldrich, Saint Louis, USA) with 0.68 mM EDTA in Tris buffer 0.1M, pH 7.4 in complete medium (CM) (DMEM (Dulbecco's Modified Eagle's Medium) Low Glucose supplemented with 10 mM HEPES, 100 U/ml penicillin, 100 μg/ml streptomycin, 2 mM glutamine and 10% fetal calf serum (Lonza, Verviers, Belgium)) for 1 hour at 37° C. The cells suspensions were passed through a 70-μm filter to remove any undigested tissue. The filtered cells suspensions were then collected by centrifugation at 800 g and were cultured in culture flasks. After 24 hours, medium was changed to eliminate non adherent cells. Synovial fibroblasts cells (SFC) were used after three passages.
(§3) 1.3 Treatment of synovial fibroblast cells. Cells were seeded into a six-well plate at the density of 2×10^5 cells/well in 2 ml of CM. When the cells reached confluence, the CM was replaced with 1% serum medium for 24 h to keep the cells quiescent. Cells were incubated for 24 hours with or without peptides Coll2-1 (^108HRGYPGLDG^116; 0.45 and 4.5 nmol) or Coll2-1NO2 (^108HRGYPGLDG-NO2^116; 4 and 40 pmol) at a range of concentrations found in the blood of osteoarthritic patients.
1.5 Intracellular H2O2 and O2^∘^− productions. Levels of intracellular superoxide anion (O2^∘^−) and hydrogen peroxide (H2O2) were assessed spectrofluorimetrically by oxidation of specific probes: dihydroethidium (Molecular Probes, Leiden, The Netherlands) and H2DCFH-DA (Molecular Probes, Leiden, The Netherlands) respectively. Synovial cells seeded on 96-well plates (8×10^3 cells per well) were washed once with phosphate-buffered saline and then incubated with 50 μL of phosphate-buffered saline containing either 250 μM dihydroethidium or 200 μM H2DCFH-DA. The fluorescence intensity was measured every hour for 6 hours. The levels of O2^∘^− or H2O2 are expressed in arbitrary unit/living cell. The numbers of adherent cells were measured by crystal violet assay.

TSP1 = TSP1 mRNA expression by Real Time PCR in OA synovial fibroblast cells; details: increasing concentrations: Coll2-1 (0.45 and 4.5 nmol) or Coll2-1NO2 (4 and 40 pmol), 24 hours
Procedure: as §3
1.4 RNA extraction and Real Time Reverse Transcriptase-Polymerase Chain Reaction (RT PCR). Total RNA were extracted using the RNeasy Mini Kit (Qiagen, Netherlands) and were reverse transcribed with SuperScript III Reverse Transcriptase (Invitrogen, Belgium) according to the manufacturer's instructions. The cDNAs were quantified by real-time quantitative PCR using the Rotor Gene instrument (Qiagen, Venlo, Netherlands) and the SYBR Premix Ex Taq kit (Takara, Verviers, Belgium). The level of gene expression was determined by interpolation with a standard curve. To standardize mRNA levels, HPRT, a house keeping gene, was amplified as an internal control. The oligonucleotide primers sequences were as follow: HPRT forward, 5′-[…]-3′ (SEQ ID NO: 2); HPRT reverse, 5′-TGCCTGACCAAGGAAAGC-3′ (SEQ ID NO: 3); TSP-1 forward, 5′-CAGACCGCATTGGAGATAC-3′ (SEQ ID NO: 4); TSP-1 reverse, 5′-[…]-3′ (SEQ ID NO: 5); VEGF forward, 5′-TGCCTTGCTGCTCTAC-3′ (SEQ ID NO: 6); VEGF reverse, 5′-CACACAGGATGGCTTGAA-3′ (SEQ ID NO: 7); IL-6 forward, 5′-AAACAAATTCGGTACATCCTCG-3′ (SEQ ID NO: 8); IL-6 reverse, 5′-CCA GGC AAG TCT CCT CAT-3′ (SEQ ID NO: 9); IL-8 forward, 5′-GGAACCATCTCACTGTGTGTAA-3′ (SEQ ID NO: 10); IL-8 reverse, 5′-TGGAAAGGTTTGGAGTATGTCT-3′ (SEQ ID NO: 11).

[2] = test system: OA synovial fibroblast cells; assay: Intracellular GSH assay in OA synovial fibroblast cells; details: Coll2-1 at 0.45 and 4.5 nmol, 24 hours
Procedure: as §1
as §2, with “passages. […]” for “passages.”
1.6 GSH assay. Levels of intracellular GSH were assessed by monoclorobimane staining. […] The fluorescence intensities were measured at […] using excitation and emission wavelengths of 380 and 485 nm, respectively. The intracellular GSH level was expressed as arbitrary units of fluorescence intensity.

## HRGYPGLDG [Coll2-1]
[1]; Coll2-1 at 4.5 nmol, 24 hours
  intracellular production of H2O2: significantly increased
[1]; increasing doses of Coll2-1 peptide
  H2O2 production: increase
TSP1
  TSP1 expression: decrease
[2]
  intracellular level of GSH: significant decrease
